Measurements taken from patent publication US11111251B2, “Positive allosteric modulators of the muscarinic acetylcholine receptor M1” (Vanderbilt University, priority 2016, dated 2021).
pEC50: −log10 of the molar value.

Target: T1, human mAChR M1 (Homo sapiens, UniProt P11229)
T1 sequence (P11229 1-460): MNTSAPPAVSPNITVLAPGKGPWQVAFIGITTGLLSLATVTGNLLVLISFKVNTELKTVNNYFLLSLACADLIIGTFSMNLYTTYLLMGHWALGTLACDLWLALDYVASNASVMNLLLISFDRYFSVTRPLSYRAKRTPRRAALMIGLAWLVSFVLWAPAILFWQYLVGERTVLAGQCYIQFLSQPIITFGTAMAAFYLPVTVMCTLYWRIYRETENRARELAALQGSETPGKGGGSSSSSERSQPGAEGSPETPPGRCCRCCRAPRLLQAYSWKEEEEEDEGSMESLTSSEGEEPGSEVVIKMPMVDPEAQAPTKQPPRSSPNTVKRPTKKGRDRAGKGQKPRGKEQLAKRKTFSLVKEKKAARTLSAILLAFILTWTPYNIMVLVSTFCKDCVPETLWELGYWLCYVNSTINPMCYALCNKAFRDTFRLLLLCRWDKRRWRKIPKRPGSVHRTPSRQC
Assay: mAChR M1 cell-based functional assay: calcium mobilization, positive allosteric modulator mode (increase in EC20 acetylcholine response)
Conditions: Table 2, human M1; for pEC50: read-out: Human M1 EC50; for Emax: read-out: Human M1 Emax (%)
How it was run: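 PAM potency reflects the concentration-dependent increase in calcium response to an EC20 acetylcholine challenge, given 144 s into a 300 s read after compound addition at 4 s (EC80 follows at 230 s). Cells were hM1-expressing CHO-K1, loaded 50 min with Fluo-4 AM. Curves used 11 points at 1:3 dilutions and four-parameter logistic fitting.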

Row | SMILES | pEC50 | Emax [%]
1 | Cc1ccc(Cc2cc(C(=O)NC34CC5CC(CC(O)(C5)C3)C4)nc3c(C)csc23)cn1 [Compound 108, N-(3-hydroxy-1-adamantyl)-3-methyl-7-[(6-methyl-3-pyridyl)methyl]thieno[3,2-b]pyridine-5-carboxamide] | 5.28 | 48.4
2 | Cc1ncc(Cc2cc(C(=O)N[C@@H]3CCOC[C@H]3O)nc3ccsc23)cn1 [Compound 128, N-[(3S,4R)-3-hydroxytetrahydropyran-4-yl]-7-[(2-methylpyrimidin-5-yl)methyl]thieno[3,2-b]pyridine-5-carboxamide] | < 5.00 | 75
3 | O=C(N[C@H]1CCCCC[C@@H]1O)c1cc(Cc2ccc(-c3cscn3)cc2)c2sccc2n1 [Compound 219, N-[(1S,2S)-2-hydroxycycloheptyl]-7-[(4-thiazol-4-ylphenyl)methyl]thieno[3,2-b]pyridine-5-carboxamide] | 6.84 | 73
4 | Cc1nc(-c2ccc(Cc3cc(C(=O)NC4CN(C(C)(C)C)C4)nc4ccsc34)cc2)cs1 [Compound 179, N-(1-tert-butylazetidin-3-yl)-7-[[4-(2-methylthiazol-4-yl)phenyl]methyl]thieno[3,2-b]pyridine-5-carboxamide] | 5.42 | 65.2
5 | O=C(c1cc(Cc2ccc(-n3cccn3)cc2)c2sccc2n1)N1CCN(CCO)CC1 [Compound 84, [4-(2-hydroxyethyl)piperazin-1-yl]-[7-[(4-pyrazol-1-ylphenyl)methyl]thieno[3,2-b]pyridin-5-yl]methanone] | < 5.00 | 24.4
6 | Cc1ccc(Cc2cc(C(=O)NC34CC5CC(CC(O)(C5)C3)C4)nc3ccsc23)cn1 [Compound 63, N-(3-hydroxy-1-adamantyl)-7-[(6-methyl-3-pyridyl)methyl]thieno[3,2-b]pyridine-5-carboxamide] | 5.40 | 87
7 | Cc1nc(-c2ccc(Cc3cc(C(=O)NC4CCCNC4=O)nc4ccsc34)cc2)cs1 (centres unmarked) [Compound 198, 7-[[4-(2-methylthiazol-4-yl)phenyl]methyl]-N-(2-oxo-3-piperidyl)thieno[3,2-b]pyridine-5-carboxamide] | 6.32 | 90

Further lines, results first:

Row | pEC50 | Emax [%] | SMILES
8 | 6.73 | 15 | Cc1nn(C)cc1-c1ccc(Cc2cc(C(=O)NC3COC3)nc3ccsc23)cc1 [Compound 244, 7-[[4-(1,3-dimethylpyrazol-4-yl)phenyl]methyl]-N-(oxetan-3-yl)thieno[3,2-b]pyridine-5-carboxamide]
9 | 5.36 | 75.4 | Cn1ccc(-c2ccc(Cc3cc(C(=O)NCC4CCOC4)nc4ccn(C)c34)cn2)n1 (centres unmarked) [Compound 509, 1-methyl-7-[[6-(1-methylpyrazol-3-yl)-3-pyridyl]methyl]-N-(tetrahydrofuran-3-ylmethyl)pyrrolo[3,2-b]pyridine-5-carboxamide;]
10 | 6.59 | 55 | O=C(NC1CC(F)(F)C1)c1cc(Cc2ccc(-n3cccn3)cc2)c2sccc2n1 [Compound 281, N-(3,3-difluorocyclobutyl)-7-[(4-pyrazol-1-ylphenyl)methyl]thieno[3,2-b]pyridine-5-carboxamide]
11 | 6.70 | 84.3 | Cn1ccc(-c2ccc(Cc3cc(C(=O)NCC4CCOCC4)nc4ccsc34)cn2)n1 [Compound 358, 7-[[6-(1-methylpyrazol-3-yl)-3-pyridyl]methyl]-N-(tetrahydropyran-4-ylmethyl)thieno[3,2-b]pyridine-5-carboxamide]
12 | 7.24 | 50 | Cn1ccc(-c2ccc(Cc3cc(C(=O)N[C@H]4CCCC[C@@H]4O)nc4ccsc34)cc2)n1 [Compound 256, N-[(1S,2S)-2-hydroxycyclohexyl]-7-[[4-(1-methylpyrazol-3-yl)phenyl]methyl]thieno[3,2-b]pyridine-5-carboxamide]
13 | 6.65 | 81.8 | O=C(NCC1CCN1)c1cc(Cc2ccc(-n3cccn3)cc2)c2sccc2n1 (centres unmarked) [Compound 292, N-(azetidin-2-ylmethyl)-7-[(4-pyrazol-1-ylphenyl)methyl]thieno[3,2-b]pyridine-5-carboxamide]
